Tests used:
[1] = system: normal oral keratinocytes (NOKs), human tonsillar epithelial cells (HTEs), HaCaT keratinocytes and MCF10A cells; assay: Cell proliferation assay; format: cell-based; details: 0, 3, 10 or 30 μM peptide, four-day treatment; cell number as % of untreated
[2] = Stability of peptide incubated in human plasma; format: in vitro ADME; details: incubated in PBS or human plasma for up to 72h at 37°C, then tested for activity
[3] = Plasma pharmacokinetics in mice; format: in vivo; details: single intravenous (i.v.) injection of 0.597 mg/kg
HaCaT keratinocytes = assay: Cell cycle analysis by flow cytometry; format: cell-based, human; details: 30 uM peptide, 16 hr
UM-SCC47 cells [4] = assay: Cell cycle analysis by flow cytometry; format: cell-based, human; details: UM-SCC47, 30 uM peptide
UM-SCC47 cells [5] = format: cell-based, human; details: UM-SCC47, 30 μM peptide for 3 hr, EdU for the last 45 min
NOKs and MCF10A cells = assay: DNA synthesis by EdU incorporation, non-tumorigenic cells; format: cell-based, human; details: 30 μM peptide for 1, 3 or 6 hr (up to 16 hr), then EdU 45 min
PCNA = assay: DNA-bound PCNA staining on chromatin; format: cell-based, human; details: UM-SCC47, detergent-extracted after 3 hr treatment with 30 μM peptide
p38MAPK = p38MAPK activation; format: cell-based, human; details: NOKs, 30 μM peptide, 15 min to 16 hr
Chk1, Chk2, H2AX = assay: DNA damage response effector activation by western blot; format: cell-based, human; details: UM-SCC47 or MDA-MB-231 cells, 30 μM peptide up to 6 hr
c-Abl = c-Abl activity; format: cell-based, human; details: UM-SCC47, 30 μM peptide for 3 hr

SSTNEGFR
growth of non-tumorigenic cells [1]: not affected
stability in human plasma [2]: remarkably stable
half-life in plasma [3]: ~ 42 hr
cells in G1 (HaCaT keratinocytes): 36.6%
cells in S (HaCaT keratinocytes): 57.0%
cells in G1 (UM-SCC47 cells [4]; 3 hr): 53.1%
cells in G2 (UM-SCC47 cells [4]; 3 hr): 0.0%
cells in S (UM-SCC47 cells [4]; 3 hr): 46.9%
cells in G1 (UM-SCC47 cells [4]; 16 hr): 48.5%
cells in G2 (UM-SCC47 cells [4]; 16 hr): 1.7%
cells in S (UM-SCC47 cells [4]; 16 hr): 49.8%
EdU incorporation (UM-SCC47 cells [5]): near complete loss of EdU incorporation
DNA synthesis (EdU incorporation) (NOKs and MCF10A cells): no inhibition of DNA synthesis
PCNA retention on chromatin (PCNA): loss of PCNA
p38MAPK activation in non-transformed cells (p38MAPK): fail to activate p38MAPK
activation of DNA damage response effectors (Chk1, Chk2, γH2AX) (Chk1, Chk2, H2AX): fails to activate Chk1 or Chk2
c-Abl activity (pY245, pY412) (c-Abl): inactivates c-Abl

From doi:10.1101/252742v1 (bioRxiv, 2018)
